In brackets after ≈: the same amount, converted by molar mass.
Experiments:
Experiment in all cases: Bacterial growth minimal inhibitory concentration (CLSI broth microdilution)
Assay type in all cases: cell-based
E. coli ATCC25922 = conditions: quinolone-sensitive strain, cation-adjusted Mueller-Hinton Broth; for MIC: Escherichia coli, ATCC25922
How it was run: (§1)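 MICs, expressed in mg/L, were determined by broth microdilution in cation-adjusted Mueller-Hinton broth according to CLSI M7-A7. K. pneumoniae A-651 is a multiply resistant, quinolone-resistant strain, whereas E. coli ATCC25922 and P. aeruginosa ATCC27853 are quinolone-sensitive.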

K. pneumoniae A-651 = conditions: multiply resistant strain (in particular quinolone-resistant), cation-adjusted Mueller-Hinton Broth; for MIC: Klebsiella pneumoniae, A651
How it was run: as §1

P. aeruginosa ATCC27853 = conditions: quinolone-sensitive strain, cation-adjusted Mueller-Hinton Broth; for MIC: Pseudomonas aeruginosa, ATCC27853
How it was run: as §1

| Molecule | MIC (E. coli ATCC25922) | MIC (K. pneumoniae A-651) | MIC (P. aeruginosa ATCC27853) | MIC for E. coli ATCC25922 (E. coli ATCC25922) | MIC for K. Pneumoniae A-651 (K. pneumoniae A-651) | MIC for P. aeruginosa ATCC27853 (P. aeruginosa ATCC27853) |
| --- | --- | --- | --- | --- | --- | --- |
| C[C@@](CCN1Cc2cc(C#CC#CC3CN(CC(F)(F)F)C3)cn2C1=O)(C(=O)NO)S(C)(=O)=O [Example 58, (2R)—N-hydroxy-2-methyl-2-(methylsulfonyl)-4-(3-oxo-6-((1-(2,2,2-trifluoroethyl)azetidin-3-yl)buta-1,3-diyn-1-yl)-1H-pyrrolo[1,2-c]imidazol-2(3H)-yl)butanamide] | 0.5 µg/mL (≈ 0.999 µM) | 4 µg/mL (≈ 7.99 µM) | 0.25 µg/mL (≈ 0.5 µM) |  |  |  |
| C[C@@](CCN1Cc2cc(C#CC#CC3CN(CCO)C3)cn2C1=O)(C(=O)NO)S(C)(=O)=O [Example 41, (2R)—N-hydroxy-4-(6-((1-(2-hydroxyethyl)azetidin-3-yl)buta-1,3-diyn-1-yl)-3-oxo-1H-pyrrolo[1,2-c]imidazol-2(3H)-yl)-2-methyl-2-(methylsulfonyl)butanamide] | 0.5 µg/mL (≈ 1.08 µM) | 0.5 µg/mL (≈ 1.08 µM) | 0.5 µg/mL (≈ 1.08 µM) |  |  |  |
| C[C@@](CCN1Cc2cc(C#CC#CC3CN(CC4CC4)C3)cn2C1=O)(C(=O)NO)S(C)(=O)=O [Example 55, (2R)-4-(6-((1-(cyclopropylmethyl)azetidin-3-yl)buta-1,3-diyn-1-yl)-3-oxo-1H-pyrrolo[1,2-c]imidazol-2(3H)-yl)-N-hydroxy-2-methyl-2-(methylsulfonyl)butanamide] | 0.125 µg/mL (≈ 0.265 µM) | 0.25 µg/mL (≈ 0.529 µM) | 1 µg/mL (≈ 2.12 µM) |  |  |  |
| CN1CCN(C(=O)OCC#CC#Cc2cc3n(c2)C(=O)N(CC[C@](C)(C(=O)NO)S(C)(=O)=O)C3)CC1 [Example 50, (3R)-5-(2-(4-(hydroxyamino)-3-methyl-3-(methylsulfonyl)-4-oxobutyl)-3-oxo-2,3-dihydro-1H-pyrrolo[1,2-c]imidazol-6-yl)penta-2,4-diyn-1-yl 4-methylpiperazine-1-carboxylate] | 1 µg/mL (≈ 1.92 µM) | 1 µg/mL (≈ 1.92 µM) | 2 µg/mL (≈ 3.85 µM) |  |  |  |
| CN1CC(C#CC#Cc2cc3n(c2)C(=O)N(CC[C@](C)(C(=O)NO)S(C)(=O)=O)C3)C1 [Example 30, (2R)—N-hydroxy-2-methyl-4-(6-((1-methylazetidin-3-yl)buta-1,3-diyn-1-yl)-3-oxo-1H-pyrrolo[1,2-c]imidazol-2(3H)-yl)-2-(methylsulfonyl)butanamide] | 0.5 µg/mL (≈ 1.16 µM) | 0.5 µg/mL (≈ 1.16 µM) | 0.5 µg/mL (≈ 1.16 µM) |  |  |  |
| C[C@@](CCN1Cc2cc(C#CC#CCOC(=O)N3CC(O)C3)cn2C1=O)(C(=O)NO)S(C)(=O)=O [Example 24, (3R)-5-(2-(4-(hydroxyamino)-3-methyl-3-(methylsulfonyl)-4-oxobutyl)-3-oxo-2,3-dihydro-1H-pyrrolo[1,2-c]imidazol-6-yl)penta-2,4-diyn-1-yl 3-hydroxyazetidine-1-carboxylate] | 0.5 µg/mL (≈ 1.02 µM) | 1 µg/mL (≈ 2.03 µM) | 1 µg/mL (≈ 2.03 µM) |  |  |  |
| C[C@@](CCN1Cc2cc(C#CC#CC3CN(C4CS(=O)(=O)C4)C3)cn2C1=O)(C(=O)NO)S(C)(=O)=O [Example 63, (2R)-4-(6-((1-(1,1-dioxidothietan-3-yl)azetidin-3-yl)buta-1,3-diyn-1-yl)-3-oxo-1H-pyrrolo[1,2-c]imidazol-2(3H)-yl)-N-hydroxy-2-methyl-2-(methylsulfonyl)butanamide] | 1 µg/mL (≈ 1.91 µM) | 2 µg/mL (≈ 3.83 µM) | 4 µg/mL (≈ 7.65 µM) |  |  |  |
| C[C@@](CCN1Cc2cc(-c3ccc(C#CC4CN(CCO)C4)cc3F)cn2C1=O)(C(=O)NO)S(C)(=O)=O [Example 88, (2R)-4-(6-(2-fluoro-4-((1-(2-hydroxyethyl)azetidin-3-yl)ethynyl)phenyl)-3-oxo-1H-pyrrolo[1,2-c]imidazol-2(3H)-yl)-N-hydroxy-2-methyl-2-(methylsulfonyl)butanamide] | 0.5 µg/mL (≈ 0.939 µM) | 2 µg/mL (≈ 3.76 µM) | 2 µg/mL (≈ 3.76 µM) |  |  |  |
| C[C@@](CCN1Cc2cc(C#CC#C[C@H]3C[C@@H]3[C@@H](O)CO)cn2C1=O)(C(=O)NO)S(C)(=O)=O [Example 56, (2R)-4-(6-(((1S,2S)-2-((R)-1,2-dihydroxyethyl)cyclopropyl)buta-1,3-diyn-1-yl)-3-oxo-1H-pyrrolo[1,2-c]imidazol-2(3H)-yl)-N-hydroxy-2-methyl-2-(methylsulfonyl)butanamide] | 0.25 µg/mL (≈ 0.539 µM) | 1 µg/mL (≈ 2.16 µM) | 0.5 µg/mL (≈ 1.08 µM) |  |  |  |
| CN(C)C1(C#CC#Cc2cc3n(c2)C(=O)N(CC[C@](C)(C(=O)NO)S(C)(=O)=O)C3)CC1 [Example 21, (2R)-4-(6-((1-(dimethylamino)cyclopropyl)buta-1,3-diyn-1-yl)-3-oxo-1H-pyrrolo[1,2-c]imidazol-2(3H)-yl)-N-hydroxy-2-methyl-2-(methylsulfonyl)butanamide] | 0.5 µg/mL (≈ 1.12 µM) | 0.5 µg/mL (≈ 1.12 µM) | 0.5 µg/mL (≈ 1.12 µM) |  |  |  |
| C[C@@H]1[C@H](C#CC#Cc2cc3n(c2)C(=O)N(CC[C@](C)(C(=O)NO)S(C)(=O)=O)C3)CN1C [Example 96, (2R)-4-(6-(((2R,3R)-1,2-dimethylazetidin-3-yl)buta-1,3-diyn-1-yl)-3-oxo-1H-pyrrolo[1,2-c]imidazol-2(3H)-yl)-N-hydroxy-2-methyl-2-(methylsulfonyl)butanamide] | 4 µg/mL (≈ 8.96 µM) | 4 µg/mL (≈ 8.96 µM) | 2 µg/mL (≈ 4.48 µM) |  |  |  |
| C[C@@](CCN1Cc2cc(C#Cc3ccc(CN4CCC(N)C(F)(F)C4)cc3)cn2C1=O)(C(=O)NO)S(C)(=O)=O (stereo partly drawn) [Example 14, (2R)-4-(6-((4-((4-amino-3,3-difluoropiperidin-1-yl)methyl)phenyl)ethynyl)-3-oxo-1H-pyrrolo[1,2-c]imidazol-2(3H)-yl)-N-hydroxy-2-methyl-2-(methylsulfonyl)butanamide] | 0.5 µg/mL (≈ 0.887 µM) | 2 µg/mL (≈ 3.55 µM) | 1 µg/mL (≈ 1.77 µM) |  |  |  |
| CN1CCC(C#CC#Cc2cc3n(c2)C(=O)N(CC[C@](C)(C(=O)NO)S(C)(=O)=O)C3)C1 (mixture of isomers) [Example 83, (2R)—N-hydroxy-2-methyl-4-(6-(((3RS)-1-methylpyrrolidin-3-yl)buta-1,3-diyn-1-yl)-3-oxo-1H-pyrrolo[1,2-c]imidazol-2(3H)-yl)-2-(methylsulfonyl)butanamide] | 2 µg/mL | 1 µg/mL | 1 µg/mL |  |  |  |
| C[C@H]1[C@H](C#CC#Cc2cc3n(c2)C(=O)N(CC[C@](C)(C(=O)NO)S(C)(=O)=O)C3)CN1C [Example 92, (2R)-4-(6-(((2S,3R)-1,2-dimethylazetidin-3-yl)buta-1,3-diyn-1-yl)-3-oxo-1H-pyrrolo[1,2-c]imidazol-2(3H)-yl)-N-hydroxy-2-methyl-2-(methylsulfonyl)butanamide] | 0.25 µg/mL (≈ 0.56 µM) | 0.25 µg/mL (≈ 0.56 µM) | 0.25 µg/mL (≈ 0.56 µM) |  |  |  |
| C[C@@](CCN1Cc2cc(C#Cc3ccc(C4(F)CN(C5COC5)C4)cc3)cn2C1=O)(C(=O)NO)S(C)(=O)=O [Example 16, (2R)-4-(6-((4-(3-fluoro-1-(oxetan-3-yl)azetidin-3-yl)phenyl)ethynyl)-3-oxo-1H-pyrrolo[1,2-c]imidazol-2(3H)-yl)-N-hydroxy-2-methyl-2-(methylsulfonyl)butanamide] | 0.25 µg/mL (≈ 0.459 µM) | 0.5 µg/mL (≈ 0.918 µM) | 1 µg/mL (≈ 1.84 µM) |  |  |  |
| (2R)-4-(6-((1-isopropylazetidin-3-yl)buta-1,3-diyn-1-yl)-3-oxo-1H-pyrrolo[1,2-c]imidazol-2(3H)-yl)-2-methyl-2-(methylsulfonyl)-N-((tetrahydro-2H-pyran-2-yl)oxy)butanamide [Example 59] |  |  |  | 1 µg/mL | 0.5 µg/mL | 0.5 µg/mL |
| CN1CC(F)(c2ccc(C#Cc3cc4n(c3)C(=O)N(CC[C@](C)(C(=O)NO)S(C)(=O)=O)C4)cc2)C1 [Example 20, (2R)-4-(6-((4-(3-fluoro-1-methylazetidin-3-yl)phenyl)ethynyl)-3-oxo-1H-pyrrolo[1,2-c]imidazol-2(3H)-yl)-N-hydroxy-2-methyl-2-(methylsulfonyl)butanamide] | 0.125 µg/mL (≈ 0.249 µM) | 0.25 µg/mL (≈ 0.497 µM) | 1 µg/mL (≈ 1.99 µM) |  |  |  |
| CN1CC(C#Cc2ccc(-c3cc4n(c3)C(=O)N(CC[C@](C)(C(=O)NO)S(C)(=O)=O)C4)cc2)C1 [Example 85, (2R)—N-hydroxy-2-methyl-4-(6-(4-((1-methylazetidin-3-yl)ethynyl)phenyl)-3-oxo-1H-pyrrolo[1,2-c]imidazol-2(3H)-yl)-2-(methylsulfonyl)butanamide] | 0.5 µg/mL (≈ 1.03 µM) | 1 µg/mL (≈ 2.06 µM) | 1 µg/mL (≈ 2.06 µM) |  |  |  |
| CC(=O)N1CC(C#CC#Cc2cc3n(c2)C(=O)N(CC[C@](C)(C(=O)NO)S(C)(=O)=O)C3)C1 [Example 32, (2R)-4-(6-((1-acetylazetidin-3-yl)buta-1,3-diyn-1-yl)-3-oxo-1H-pyrrolo[1,2-c]imidazol-2(3H)-yl)-N-hydroxy-2-methyl-2-(methylsulfonyl)butanamide] | 1 µg/mL (≈ 2.17 µM) | 2 µg/mL (≈ 4.34 µM) | 1 µg/mL (≈ 2.17 µM) |  |  |  |
| C[C@@](CCN1Cc2cc(C#CC#CC3CCN(C4COC4)CC3)cn2C1=O)(C(=O)NO)S(C)(=O)=O [Example 35, (2R)—N-hydroxy-2-methyl-2-(methylsulfonyl)-4-(6-((1-(oxetan-3-yl)piperidin-4-yl)buta-1,3-diyn-1-yl)-3-oxo-1H-pyrrolo[1,2-c]imidazol-2(3H)-yl)butanamide] | 0.5 µg/mL (≈ 0.995 µM) | 1 µg/mL (≈ 1.99 µM) | 2 µg/mL (≈ 3.98 µM) |  |  |  |
| CC(=O)N1CC(O)(c2ccc(C#Cc3cc4n(c3)C(=O)N(CC[C@](C)(C(=O)NO)S(C)(=O)=O)C4)cc2)C1 [Example 6, (2R)-4-(6-((4-(1-acetyl-3-hydroxyazetidin-3-yl)phenyl)ethynyl)-3-oxo-1H-pyrrolo[1,2-c]imidazol-2(3H)-yl)-N-hydroxy-2-methyl-2-(methylsulfonyl)butanamide] | 2 µg/mL (≈ 3.78 µM) | 4 µg/mL (≈ 7.57 µM) | 1 µg/mL (≈ 1.89 µM) |  |  |  |
| [2H]C([2H])S(=O)(=O)[C@](C)(CCN1Cc2cc(C#CC#CC3CN(C)C3)cn2C1=O)C(=O)NO [Example 80, (2R)—N-hydroxy-2-methyl-2-((methyl-d2)sulfonyl)-4-(6-((1-methylazetidin-3-yl)buta-1,3-diyn-1-yl)-3-oxo-1H-pyrrolo[1,2-c]imidazol-2(3H)-yl)butanamide] | 0.5 µg/mL (≈ 1.15 µM) | 0.5 µg/mL (≈ 1.15 µM) | 0.5 µg/mL (≈ 1.15 µM) |  |  |  |

From patent publication US10314823B2, “Substituted 1,2-dihydro-3H-pyrrolo[1,2-c]imidazol-3-one antibacterial compounds” (IDORSIA PHARMACEUTICALS LTD, priority 2015, dated 2019)
